Experiments:
[1] = relative potency / activity (test not specified)
blood glucose = assay: hypoglycaemic activity: reduction in area under blood glucose curve after glucose load in fasted mice; assay type: in vivo, female CFLP mice; details: for anti-hyperglycaemic activity (in words): general statement, no dose given; for inhibition in vivo at 5 mg/kg: Mus musculus, po, 2 h, 5 mg/kg po, 30 min before glucose load 1 g/kg sc, 2 hour period, versus control mice
Protocol: Female CFLP mice, weighing approximately 25 g, were fasted for 24 hours prior to the study. The compounds under study were dosed orally (20 mg and 5 mg/kg) to each of 8 mice. 30 minutes later a blood sample ([…]) was obtained from the tail for the analysis of blood glucose. Immediately after taking this blood sample, each mouse was given a glucose load (1 g/kg body weight sub-cutaneously). Blood samples were then obtained from each mouse at 30 minute intervals for 120 minutes.
Compounds that produced a significant (P<0.05) reduction of blood glucose, compared with control mice given water, at any time interval were considered active. The area under the blood glucose curve over the 2 hour period after giving the glucose load was calculated for each compound and compared with the value for control animals. Thus a compound would give a 100% reduction in the area under the blood glucose curve if the blood glucose was maintained at the same level as in untreated fasted animals. Reduction in the glucose curve of more than 100% indicate that a compound, in spite of being given a glucose load, maintained blood glucose levels below that found in control fasted mice.

genetically obese mice = assay: carcass lipid of genetically obese mice after daily oral dosing for 28 days (anti-obesity); assay type: in vivo, mouse (genetically obese); details: for anti-obesity activity (in words): general statement, no dose given; for g - lipid per mouse, Treated: daily for 28 days
Protocol: (i) The compounds and a comparison compound (salbutamol) were dosed daily in water or carboxymethylcellulose suspension to genetically obese mice by oral gavage for 28 days. At the end of that time the carcass composition was determined.

[2] = tested on: 5-hydroxytryptamine-induced bronchoconstriction; assay: bronchodilator potency in anaesthetised artificially respired guinea pig (Konzett-Rossler preparation); assay type: in vivo; details: inhibition of 5-hydroxytryptamine-induced bronchoconstriction
CFLP mice = assay: acute toxicity, single lethal dose; assay type: in vivo; details: po
Description: Other compounds of the invention have similar low toxicities.

Compound | anti-hyperglycaemic activity (in words) (blood glucose) | anti-obesity activity (in words) (genetically obese mice) | inhibition in vivo at 5 mg/kg (blood glucose) | also measured
COC(=O)c1ccc(CC(C)NCC(O)c2ccc(O)c(CO)c2)cc1 (stereo not drawn) [21 (higher melting), N-[2-(4-carbomethoxyphenyl)-1-methylethyl]-2-hydroxy-2-(4-hydroxy-3-hydroxymethylphenyl) ethanamine] | particularly worthy of mention in view of their anti-hyperglycaemic activity | particularly worthy of mention in view of their anti-obesity activity | – | relative potency / activity (in words) [1]: more potent diastereoisomer
COC(=O)c1ccc(CC(C)NCC(O)c2ccc(O)c(CO)c2)cc1 (stereo not drawn) [Example 1] | particularly worthy of mention in view of their anti-hyperglycaemic activity | particularly worthy of mention in view of their anti-obesity activity | 157% | bronchodilator potency relative to salbutamol [2]: one twelfth as potent as salbutamol; single lethal dose (CFLP mice): > 900 mg/kg; g - lipid per mouse, Treated (genetically obese mice; 8 mg/kg po, control 23.3 ± 0.7): 20.8 ± 0.7 g
COC(=O)c1ccc(CCCC(C)NCC(O)c2ccc(O)c(CO)c2)cc1 (stereo not drawn) [Example 17] | particularly worthy of mention in view of their anti-hyperglycaemic activity | particularly worthy of mention in view of their anti-obesity activity | 84% | g - lipid per mouse, Treated (genetically obese mice; 11 mg/kg po, control 18.9 ± 0.66 (Ex. 12), 17.0 ± 0.67 (Ex. 17)): 14.0 ± 0.97 g
COC(=O)c1ccc(CC(C)NCC(O)c2ccccc2)cc1 (stereo not drawn) [Example 22, N-(2-[4-Carbomethoxyphenyl]-1-methylethyl)-2-hydroxy-2-phenylethanamine] | particularly worthy of mention in view of their anti-hyperglycaemic activity | particularly worthy of mention in view of their anti-obesity activity | 172% | g - lipid per mouse, Treated (genetically obese mice; 9 mg/kg po, control 18.9 ± 0.66): 13.9 ± 0.65 g
COC(=O)c1ccc(CC(C)NCC(O)c2ccccc2Cl)cc1 (stereo not drawn) [Example 28, N-(2-[4-Carbomethoxyphenyl]-1-methylethyl)-2-(2-chlorophenyl)-2-hydroxyethanamine] | – | – | 37% | g - lipid per mouse, Treated (genetically obese mice; 19 mg/kg po, control 17.0 ± 0.67): 14.9 ± 0.37 g
COC(=O)c1ccc(CC(C)NCC(O)c2cc(Cl)c(N)c(Cl)c2)cc1 (stereo not drawn) [Example 30, N-(2-[4-Carbomethoxyphenyl]-1-methylethyl)-2-(4-amino-3,5-dichlorophenyl)-2-hydroxyethanamine] | particularly worthy of mention in view of their anti-hyperglycaemic activity | particularly worthy of mention in view of their anti-obesity activity | 141% | g - lipid per mouse, Treated (genetically obese mice; 22 mg/kg po, control 19.1 ± 0.47): 14.0 ± 0.57 g
COC(=O)c1ccc(CC(C)NCC(O)c2ccccc2)cc1 (stereo not drawn) [Example 59 (mp 83°-4°), N-[2-(4-carbomethoxyphenyl)-1-methylethyl]-2-hydroxy-2-phenylethanamine] | – | – | – | relative potency / activity (in words) [1]: more potent diastereoisomer
